Laboratory results: publication PMC7918931 (Viruses, 2021)

Experiments:
[1] = tested on: SMURF2 WW domain #3 (SMURF2-3); type: binding
[2] = tested on: ~115 known WW domains (GST-fusion proteins); type: binding, mammalian
[3] = molecular target: GST-SMURF2-WW3 (Homo sapiens, UniProt Q9HAU4); type: binding; conditions: pH 7.4
Chain of GST-SMURF2-WW3 (Q9HAU4 297-330): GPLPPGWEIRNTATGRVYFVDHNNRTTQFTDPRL

`CC[C@H](C)[C@H](NC(=O)[C@H](C)NC(=O)[C@H](CCC(=O)O)NC(=O)[C@H](CCSC)NC(=O)[C@H](Cc1ccc(O)cc1)NC(=O)[C@H](CCC(=O)O)NC(=O)[C@@H]1CCCN1C(=O)[C@@H]1CCCN1C(=O)[C@H](C)NC(=O)[C@@H](NC(=O)[C@@H]1CCCN1C(=O)[C@H](CC(C)C)NC(=O)[C@@H](NC(=O)[C@@H](NC(=O)[C@H](CCCNC(=N)N)NC(=O)[C@H](CCCNC(=N)N)NC(=O)[C@@H](N)CCSC)C(C)C)[C@@H](C)CC)[C@@H](C)O)C(=O)N[C@@H](CCCCNC(=O)CCCC[C@@H]1SC[C@@H]2NC(=O)N[C@@H]21)C(=O)O` [eVP40-WT peptide] was tested, and the “interaction with SMURF2 WW domain #3 on array” value [1] was “positive interaction”, the “interaction with host WW domains on array” value [2] was “interacted with a select number of host WW domains” and the Bmax [3] was 39 RU.
